These results are taken from ChEMBL document CHEMBL1145000, “Nitro and amino substitution in the D-ring of 5-(2-dimethylaminoethyl)- 2,3-methylenedioxy-5H-dibenzo[c,h][1,6]naphthyridin-6-ones: effect on topoisomerase-I targeting activity and cytotoxicity” (J Med Chem, 2003).

One may read the IC50 as the midpoint of a concentration-inhibition curve.

Bounds are passed on as bounds.

Assay [1] can be described thus: Cytotoxic activity against human lymphoblast tumor cell line CPT-K5 after 4 days of treatment. In kind it is functional. The settings on record: CPT-K5, 96 h.
Assay [2] addresses T1, DNA topoisomerase 1 (Homo sapiens) (UniProt P11387).
T1 sequence (whole entry): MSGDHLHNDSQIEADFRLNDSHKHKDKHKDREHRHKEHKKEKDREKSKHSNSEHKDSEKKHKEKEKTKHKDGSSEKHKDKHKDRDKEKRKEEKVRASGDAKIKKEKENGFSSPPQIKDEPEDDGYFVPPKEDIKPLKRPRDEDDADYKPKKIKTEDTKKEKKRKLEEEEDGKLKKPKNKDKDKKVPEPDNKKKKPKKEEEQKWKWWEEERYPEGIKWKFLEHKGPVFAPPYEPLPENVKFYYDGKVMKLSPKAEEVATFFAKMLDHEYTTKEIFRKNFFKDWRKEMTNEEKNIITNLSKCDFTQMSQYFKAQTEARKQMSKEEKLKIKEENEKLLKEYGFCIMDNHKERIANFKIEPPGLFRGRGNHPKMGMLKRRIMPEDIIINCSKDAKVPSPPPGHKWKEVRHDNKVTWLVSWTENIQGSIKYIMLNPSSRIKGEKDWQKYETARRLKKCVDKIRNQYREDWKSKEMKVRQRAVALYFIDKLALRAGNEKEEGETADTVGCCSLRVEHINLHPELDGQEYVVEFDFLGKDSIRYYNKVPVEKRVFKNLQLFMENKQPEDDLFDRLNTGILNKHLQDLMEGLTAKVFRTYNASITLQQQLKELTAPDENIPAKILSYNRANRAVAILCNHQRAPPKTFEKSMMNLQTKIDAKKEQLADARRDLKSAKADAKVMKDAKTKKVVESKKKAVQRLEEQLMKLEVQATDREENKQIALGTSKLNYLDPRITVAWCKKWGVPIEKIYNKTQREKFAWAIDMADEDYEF
Description: Effective concentration required to cleave DNA, mediated by human DNA topoisomerase I (TOP1) reported as REC i.e. concentration relative to topotecan (assumed as 1)

The test system of another assay is RPMI 8402. Briefly: Cytotoxic activity against human lymphoblast tumor cell line RPMI8402 after 4 days of treatment. In kind it is functional, cell-based. The settings on record: RPMI 8402, 96 h.

Regarding `CN(C)CCn1c(=O)c2ccc([N+](=O)[O-])cc2c2cnc3cc4c(cc3c21)OCO4`, the IC50 in assay [1] amounted to 2800 nM; with RPMI 8402, 2 nM. This compound also showed an REC in assay [2] of 0.1.
On to `CN(C)CCn1c(=O)c2ccc(N)cc2c2cnc3cc4c(cc3c21)OCO4`, for which the figures for the IC50 (in assay [1]; in the assay with RPMI 8402) were 1000 nM and 25 nM, respectively. This compound registered an REC in assay [2] of 0.5.
`COc1cc2c(=O)n(CCN(C)C)c3c4cc5c(cc4ncc3c2cc1OC)OCO5` returned an IC50 in assay [1] of 900 nM.
As for `CN(C)CCn1c(=O)c2ccccc2c2cnc3cc4c(cc3c21)OCO4`, the IC50 in assay [1] came to 950 nM; with RPMI 8402, 60 nM. This compound also had an REC in assay [2] of 6.
With `CN(C)CCn1c(=O)c2cccc([N+](=O)[O-])c2c2cnc3cc4c(cc3c21)OCO4`, the IC50 in assay [1] was greater than 10000 nM; with RPMI 8402, 4800 nM. The same compound showed an REC in assay [2] of 1000.
For `CC[C@@]1(O)C(=O)OCc2c1cc1n(c2=O)Cc2cc3ccccc3nc2-1` [CAMPTOTHECIN], in assay [2], the REC was 0.5. Besides, the IC50 in the assay on RPMI 8402 was found to be 5 nM.
With `CN1CCN(c2ccnc3cc4c(cc23)OCO4)C(=O)c2cc([N+](=O)[O-])ccc21`, the IC50 in assay [1] is greater than 10000 nM; in the assay with RPMI 8402 it was 3000 nM. Moreover, the REC in assay [2] came to 1000.
On to `CN(C)CCn1c(=O)c2cc(N)ccc2c2cnc3cc4c(cc3c21)OCO4`, for which the IC50 is 380 nM in assay [1] and 80 nM in the assay on RPMI 8402. The compound also had an REC in assay [2] of 8.
As for `CCCCn1c(=O)c2cc([N+](=O)[O-])ccc2c2cnc3cc4c(cc3c21)OCO4`, the results for the IC50 (in assay [1]; in the assay with RPMI 8402) were greater than 10000 nM and 240 nM, respectively. In addition, in assay [2], the REC came out at 10.
In the case of `CCCCn1c(=O)c2cc(N)ccc2c2cnc3cc4c(cc3c21)OCO4`, the IC50 was greater than 10000 nM in assay [1] and 1250 nM in the assay with RPMI 8402. In assay [2], this compound had an REC of 500.
As to `COc1cc2c(=O)n(CCN(C)C)c3c4cc5c(cc4nnc3c2cc1OC)OCO5`, the IC50 in assay [1] was found to be 600 nM. In assay [2], this compound gave an REC of 0.3.
Compound `CC[C@@]1(O)C(=O)OCc2c1cc1n(c2=O)Cc2cc3c(CN(C)C)c(O)ccc3nc2-1` [TOPOTECAN] registered an IC50 in assay [1] greater than 50000 nM. The REC in assay [2] came to 1.
For `CN(C)CCn1c(=O)c2cc([N+](=O)[O-])ccc2c2cnc3cc4c(cc3c21)OCO4`, the IC50 in assay [1] was 330 nM; with RPMI 8402, 3 nM. The REC in assay [2] stood at 0.2.
Turning to `COc1cc([C@@H]2c3cc4c(cc3[C@@H](O[C@@H]3O[C@@H]5CO[C@@H](c6cccs6)O[C@H]5[C@H](O)[C@H]3O)[C@H]3COC(=O)[C@H]23)OCO4)cc(OC)c1O` [TENIPOSIDE], the IC50 in assay [1] turned out to be 280 nM. In addition, the REC in assay [2] was greater than 1000.
Consider `CN(C)CCn1c(=O)c2cccc(N)c2c2cnc3cc4c(cc3c21)OCO4`, for which the IC50 in assay [1] was 3200 nM; with RPMI 8402, 340 nM. In assay [2], this compound came in with an REC of 15.
